Laboratory results: ChEMBL document CHEMBL1157539, “Thousands of chemical starting points for antimalarial lead identification” (Nature, 2010)

These molecules were tested on Plasmodium falciparum (assay: GSK_TCMDC: Inhibition of Plasmodium falciparum 3D7 in whole erythrocytes, using parasite LDH activity as an index of growth.). Settings: not given.
Assay type: functional, organism-based

`O=C(/C=C/c1cccc2ccccc12)NC1CCC(CN2CCC(c3c[nH]c4ccccc34)CC2)CC1` (stereo unspecified) was tested, and the XC50 was 745 nM.

Same assay, conditions: Plasmodium falciparum, 3D7

Going from `O=[N+]([O-])c1ccc(C2=NN(S(=O)(=O)c3c(Cl)cc(Cl)cc3Cl)CCCC2)cc1` to `O=C(Cc1ccc(Cl)cc1)NC1CCN(c2ccnc3cc(Cl)ccc23)C1` (stereo unspecified), the XC50 rises from 125 nM to 226 nM (1.8-fold).

Going from `CN1CCCC(CN2CCN(Cc3ccc(-c4cccc(-c5nc6cc(F)ccc6[nH]5)c4)cc3)CC2)C1` (stereo unspecified) to `CN1CCN(CC(=O)Nc2ccc(-c3cccc(-c4nc5cc(F)ccc5[nH]4)c3)cc2)CC1`, the XC50 rises from 184 nM to 832 nM (4.5-fold).

Going from `CCNc1cc(C(=O)N[C@@H](Cc2ccccc2)[C@H](O)CNC2CC3CCC2C3)cc(N2CCCCS2(=O)=O)c1` (stereo partly specified) to `CCn1ccc2c(N3CCCCS3(=O)=O)cc(C(=O)N[C@@H](Cc3ccccc3)[C@H](O)CNC3CCCCC3)cc21`, the XC50 falls from 237 nM to 122 nM (1.9-fold).

Compared with `Cc1nnc2c(NC(=O)/C=C/c3ccc(OC(F)(F)F)cc3)cc3cc(Cl)ccc3n12`, `Cc1nc(C)c(-c2ccc(Oc3cccc(OC(F)(F)F)c3)cc2)c(O)c1Cl` is 4-fold higher in XC50: 170 nM for the first, 684 nM for the second.

`COc1ccc2c(NN=CC=Cc3ccccc3)ccnc2c1` and `Clc1cc(Nc2ccnc3ccc(Br)cc23)ccc1Oc1ccc2ccccc2c1Cl` are within 1.5-fold of each other in XC50: 770 nM for the first, 725 nM for the second.

`O=C(Nc1ccc(NC2=NCCN2)cc1)Nc1ccc(NC2=NCCN2)cc1` and `O=C(NCCCN1CCCCC1)c1ccc(Nc2nccc(Nc3ccc(Oc4ccccc4)cc3)n2)cc1` are within 1.5-fold of each other in XC50: 845 nM for the first, 626 nM for the second.

Compared with `CCCc1cc(Cc2cnc(N)nc2N)cc(CC)c1OC`, `CCn1c2ccccc2c2cc(Cc3cnc(N)nc3N)ccc21` is 3.7-fold lower in XC50: 821 nM for the first, 221 nM for the second.

Compared with `CCC1CN(CCCn2c3ccccc3c3ccccc32)C(CC)CN1` (stereo unspecified), `Cn1c(=N)n(CC(=O)OCc2ccc(OCc3ccccc3)cc2)c2ccccc21` is 13-fold lower in XC50: 1080 nM for the first, 81.9 nM for the second.

Going from `COc1ccccc1Nc1nc(NC2CCN(C)CC2)cc(-c2cccc(C(F)(F)F)c2)n1` to `O=C(c1cccc(-c2ccc(-c3nc4cc(C(F)(F)F)ccc4[nH]3)cc2)c1)N1CCCCC1CN1CCC(O)C1` (stereo unspecified), the XC50 falls from 919 nM to 465 nM (2-fold).

Going from `CN(C)c1ccc(CN2CCC(NC(=O)c3ccc(-c4cccc(F)c4)s3)CC2)cc1` to `COCCN1CCN(Cc2ccc(-c3ccc(-c4nc5cccc(C)c5[nH]4)s3)cc2)CC1`, the XC50 falls from 1490 nM to 859 nM (1.7-fold).

`O=C(CCCCCNC(=O)c1ccc(O)c(-c2ccc(Cl)c(Cl)c2)c1)NCc1cccc2ccccc12` and `O=C(N[C@H]1CCN(Cc2ccc(OCCN3CCCC3)c3ccccc23)C1)c1ccc(Cl)c(Cl)c1` are within 1.5-fold of each other in XC50: 762 nM for the first, 746 nM for the second.

`O=C(NC1CCN(CCCOc2ccnc3cc(Cl)ccc23)C1)c1ccc(Br)cc1` (stereo unspecified) and `CCc1ccc(NC(=O)c2ccc(CN3CCCN(Cc4cccc(Cl)c4)CC3)cc2)cc1` are within 1.5-fold of each other in XC50: 1020 nM for the first, 1110 nM for the second.

Compared with `O=C(Nc1ccc(OC2CCN(Cc3ccsc3)CC2)c(Cl)c1)c1ccco1`, `CCc1cc(C(=O)c2cccc(C)c2)c(NC(=O)CN2CCN(C(=O)c3ccco3)CC2)s1` is 1.7-fold lower in XC50: 784 nM for the first, 451 nM for the second.

`O=C(NC1CCCCC1)N(Cc1ccc(-c2ccc(CNC3CCCC3)cc2)cc1)C1CCN(Cc2ccccc2)CC1` and `CN1CCCC1CCNCc1ccc(-c2ccc(CNCCc3ccccc3)cn2)cc1` (stereo unspecified) are within 1.5-fold of each other in XC50: 780 nM for the first, 1110 nM for the second.

`Nc1c(Cl)cc(C(O)CNCCCCCOCCCc2ccc3ncccc3c2)cc1Cl` (stereo unspecified) and `Nc1c(Cl)cc(C(O)CNCCCCCCOCCc2ccc(CO)s2)cc1Cl` (stereo unspecified) are within 1.5-fold of each other in XC50: 978 nM for the first, 1050 nM for the second.

`O=C(/C=C/c1cccc2ccccc12)NC1CCC(CN2CCC(c3c[nH]c4ccccc34)CC2)CC1` (stereo unspecified) and `O=C(/C=C/c1cccc(Br)c1)NCCCCCN1CCC(c2c[nH]c3ccccc23)CC1` are within 1.5-fold of each other in XC50: 666 nM for the first, 634 nM for the second.

First: CCCCCCn1c(Sc2ccc(C#N)c([N+](=O)[O-])c2)nnc1-c1cccc(Cl)c1
Second: COc1ccc(CNCCCCCCNCCc2ccc(Cl)cc2)cc1OC
The XC50 of the first is 2.3-fold lower: 609 nM for the first, 1390 nM for the second.

`CN1CCN(c2cc3c(cc2Cl)CCN3C(=O)Cc2ccc(Cl)c(NC(=O)Nc3cccc(C#N)c3)c2)CC1` and `Cc1cc(-c2cccc3c(C(=O)N4CCc5cc6nccc(N7CCCN(C)CC7)c6cc54)cccc23)cc(C)n1` are within 1.5-fold of each other in XC50: 637 nM for the first, 437 nM for the second.

`FC(F)(F)c1ccc2[nH]c(-c3ccc(-c4ccc(CNCC5CCCO5)cc4)s3)nc2c1` (stereo unspecified) and `Fc1ccc2[nH]cc(CCNCc3ccc(-c4cccc(-c5nc6ccccc6[nH]5)c4)cc3)c2c1` are within 1.5-fold of each other in XC50: 158 nM for the first, 174 nM for the second.

`COc1cc(NC(=O)c2sc(-c3ccc(Cl)cc3)cc2NC(=O)c2cccc(N(C)C)c2)ccc1OCCN1CCCC1` and `O=C(NCCN1CCCC1)c1cccc(Nc2nccc(Nc3ccc(Oc4ccccc4)cc3)n2)c1` are within 1.5-fold of each other in XC50: 709 nM for the first, 654 nM for the second.

`COc1cc(CNC[C@@H](O)[C@H](Cc2ccccc2)NC(=O)c2cc(C3CCCC3)cc(N3CCCCS3(=O)=O)c2)cc(OC)c1` and `Cc1cc(N[C@@H](CC(C)C)C(=O)Nc2ccccc2)nc(NCC2CCCCC2)n1` are within 1.5-fold of each other in XC50: 704 nM for the first, 874 nM for the second.

First: CC(=O)Nc1ccc(C(=O)Nc2ccc(-c3cccc(-c4nc5cccc(C)c5[nH]4)c3)cc2)cn1
Second: Cc1cccc2nc(-c3ccc(-c4ccc(CNC(C)C)cc4)cc3)[nH]c12
The XC50 of the first is 2.6-fold lower: 265 nM for the first, 676 nM for the second.

Going from `COc1cc2nc(NCCc3ccccc3)nc(NCc3cc(C)no3)c2cc1OC` to `O=C(CCNc1ccnc(NCCc2ccc(F)cc2)n1)Nc1ccccc1`, the XC50 rises from 239 nM to 829 nM (3.5-fold).

`c1cc(CN2CCN(CCN3CCOCC3)CC2)cc(-c2cccc(-c3nc4ccccc4[nH]3)c2)c1` and `Nc1ncc(-c2ccccc2)cc1-c1nc2cc(Cl)c(F)cc2[nH]1` are within 1.5-fold of each other in XC50: 236 nM for the first, 263 nM for the second.

`COc1cc(C(=O)N2CCC(CCN3CCC4(CC3)CN(S(C)(=O)=O)c3ccccc34)CC2Cc2ccc(Cl)c(Cl)c2)cc(OC)c1OC` (stereo unspecified) and `COc1ccc(NC(=O)NC2CCN(CCCCCNC(=O)/C=C/c3ccc(Cl)c(Cl)c3)CC2)cc1` are within 1.5-fold of each other in XC50: 843 nM for the first, 1010 nM for the second.

First: CCCC(=O)Nc1ccc(Nc2nc(C)cc(N3CCCC3)n2)cc1
Second: Cc1cc(C)n(Cc2ccc(C(=O)NCC3CCCCC3)cc2)n1
The XC50 of the first is 1.6-fold higher: 1490 nM for the first, 957 nM for the second.

First: NC1=NC(CCc2ccccc2)N(c2ccc(Cl)cc2)C(N)=N1 (stereo unspecified)
Second: CCc1ccc(-n2c(NC(=O)c3ccccc3)nc3ccc(S(=O)(=O)NC(C)C(C)C)cc32)cc1 (stereo unspecified)
The XC50 of the first is 24-fold lower: 38 nM for the first, 926 nM for the second.

`CC(Nc1nncc(-c2cccc(F)c2)n1)c1ccc(F)cc1` (stereo unspecified) and `O=C(Cc1c[nH]cn1)Nc1ccc(-c2ccc(-c3nc4cc(F)ccc4[nH]3)cc2)cc1` are within 1.5-fold of each other in XC50: 791 nM for the first, 731 nM for the second.

First: CC1(C)NC(N)=NC(=N)N1OCCc1ccc(N)cc1
Second: Nc1ccc(-c2nc3cc(Cc4ccc5[nH]c(-c6ccc(N)cc6)nc5c4)ccc3[nH]2)cc1
The XC50 of the first is 160-fold lower: 3.2 nM for the first, 512 nM for the second.

Going from `C[C@H](Cc1ccc(OCCCOc2ccc(C[C@@H](C)NC[C@H](O)c3cccc(Cl)c3)cc2)cc1)NC[C@H](O)c1cccc(Cl)c1` to `COc1cccc(CC(C)NCC(O)c2cccc(Cl)c2)c1` (stereo unspecified), the XC50 rises from 780 nM to 1270 nM (1.6-fold).

Compared with `Cc1nc(C)c(-c2ccc(Oc3cc(Cl)cc(Cl)c3)cc2)c(O)c1Br`, `COc1ccc(OC)c(Cc2c(C)nc3nc(N)nc(N)c3c2C)c1` is 3.6-fold higher in XC50: 242 nM for the first, 864 nM for the second.

`CC1CN(c2cnn(C/C=C/c3ccc(NC(=O)c4ccc5nonc5c4)cc3)c(=O)c2Cl)CC(C)N1` (stereo unspecified) and `Cc1c(Cn2ncc(N3CC(C)NC(C)C3)c(Cl)c2=O)cccc1NC(=O)Nc1ccc(-c2ccccc2)cc1` (stereo unspecified) are within 1.5-fold of each other in XC50: 786 nM for the first, 596 nM for the second.

`CCCCCc1cc(O)c2c(c1)OC(C)(C)CC2C1=CCN(Cc2cccnc2)CC1` (stereo unspecified) and `CC1(C)CC(=O)c2c(O)cc(OCc3ccncc3)cc2O1` are within 1.5-fold of each other in XC50: 991 nM for the first, 1040 nM for the second.

`FC(F)(F)c1ccc2[nH]ccc(=NN=Cc3cccc(Cl)c3)c2c1` and `O=C(NCC(c1ccc(C(F)(F)F)cc1)N1CCCC1)c1cc(-c2ccncc2)c(-c2cccc(O)c2)o1` (stereo unspecified) are within 1.5-fold of each other in XC50: 825 nM for the first, 1060 nM for the second.

Going from `CCc1c(C(=O)NC2CCC(N3CCC(c4ccccc4C)CC3)CC2)[nH]c2ccc(Br)cc12` (stereo unspecified) to `Cc1nc2nc(N)nc(N)c2c(C)c1Cc1ccccc1I`, the XC50 falls from 928 nM to 351 nM (2.6-fold).
